Experiment [1] in a line: Growth inhibition of human NCI60 cells by SBR assay. Format: functional.
The target in experiment [2] is Insulin-like growth factor 1 receptor (Homo sapiens, UniProt P08069). Kind of experiment: Inhibition of IGF1R.
For experiment [3], the target named is Vascular endothelial growth factor receptor 3 (Homo sapiens, UniProt P35916). The experiment in a line: Inhibition of VEGFR3.
For experiment [4], the target named is Vascular endothelial growth factor receptor 2 (Homo sapiens, UniProt P35968). Kind of experiment: Inhibition of VEGFR2.
Experiment [5] has as its target Tyrosine-protein kinase ABL1 (Homo sapiens, UniProt P00519). Kind of experiment: Inhibition of human ABL1.
In experiment [6] the target is Tyrosine-protein kinase ABL2 (Homo sapiens, UniProt P42684). Kind of experiment: Inhibition of human ABL2.
For the next experiment, the target named is Focal adhesion kinase 1 (Homo sapiens, UniProt Q05397). Kind of experiment: Inhibition of human FAK.
In the next experiment the target is Insulin receptor (Homo sapiens, UniProt P06213). The experiment in a line: Inhibition of human InsR.
For experiment [7], the target named is Insulin receptor-related protein (Homo sapiens, UniProt P14616). The experiment in a line: Inhibition of human InsRR.
For another experiment, the target named is Angiopoietin-1 receptor (Homo sapiens, UniProt Q02763). The experiment in a line: Inhibition of human TIE2.
Experiment [8] deals with Interleukin-1 receptor-associated kinase 1 (Homo sapiens, UniProt P51617). The experiment in a line: Inhibition of human IRAK1.
The target of the next experiment is LIM domain kinase 1 (Homo sapiens, UniProt P53667). The experiment in a line: Inhibition of human LIMK1.
Experiment [9] addresses Cyclin-dependent kinase 4/cyclin D1 (Homo sapiens, UniProt P11802). Kind of experiment: Inhibition of human CDK4/Cyclin D1. In kind it is protein-complex assay.
The target of the next experiment is CDK6/cyclin D1 (Homo sapiens, UniProt Q00534). The experiment in a line: Inhibition of human CDK6/Cyclin D1. In kind it is protein-complex assay.
Experiment [10] deals with Cyclin-dependent kinase 5/CDK5 activator 1 (Homo sapiens, UniProt Q00535). Kind of experiment: Inhibition of human CDK5/p25. In kind it is protein-complex assay.
Experiment [11] has as its target Dual specificity protein kinase CLK1 (Homo sapiens, UniProt P49759). Kind of experiment: Inhibition of human CLK1.
Experiment [12] has as its target Dual specificity tyrosine-phosphorylation-regulated kinase 1A (Homo sapiens, UniProt Q13627). The experiment in a line: Inhibition of human DYRK1A.
The target of experiment [13] is Homeodomain-interacting protein kinase 1 (Homo sapiens, UniProt Q86Z02). Kind of experiment: Inhibition of human HIPK1.
For a further experiment, the target named is Aurora kinase A (Homo sapiens, UniProt O14965). Kind of experiment: Inhibition of human Aurora A.
In a further experiment the target is Aurora kinase C (Homo sapiens, UniProt Q9UQB9). Kind of experiment: Inhibition of human Aurora C.
In experiment [14] the target is Protein kinase C gamma type (Homo sapiens, UniProt P05129). Kind of experiment: Inhibition of human PKC-gamma.
Experiment [15] deals with Protein kinase C iota type (Homo sapiens, UniProt P41743). The experiment in a line: Inhibition of human PKC-iota.
Experiment [16] has as its target Mitogen-activated protein kinase 3 (Homo sapiens, UniProt P27361). Kind of experiment: Inhibition of human ERK1.
Experiment [17] has as its target Mitogen-activated protein kinase 14 (Homo sapiens, UniProt Q16539). Kind of experiment: Inhibition of human p38-alpha.
Another experiment addresses Misshapen-like kinase 1 (Homo sapiens, UniProt Q8N4C8). The experiment in a line: Inhibition of human INK1.
For experiment [18], the target named is Serine/threonine-protein kinase VRK1 (Homo sapiens, UniProt Q99986). The experiment in a line: Inhibition of human VRK1.
The next experiment addresses Wee1-like protein kinase (Homo sapiens, UniProt P30291). The experiment in a line: Inhibition of human WEE1.
The target of experiment [19] is Serine/threonine-protein kinase Nek3 (Homo sapiens, UniProt P51956). The experiment in a line: Inhibition of human Nek3.
Experiment [20] addresses Serine/threonine-protein kinase PLK1 (Homo sapiens, UniProt P53350). Kind of experiment: Inhibition of human PLK1.
Experiment [21] has as its target Epidermal growth factor receptor (Homo sapiens, UniProt P00533). The experiment in a line: Inhibition of EGFR.
A short description of experiment [22]: Cytotoxicity against human NCI60 cells by SBR assay. In kind it is functional.

A value given as a limit tells only on which side of the number the result lay.

Chain of Epidermal growth factor receptor (P00533 whole entry): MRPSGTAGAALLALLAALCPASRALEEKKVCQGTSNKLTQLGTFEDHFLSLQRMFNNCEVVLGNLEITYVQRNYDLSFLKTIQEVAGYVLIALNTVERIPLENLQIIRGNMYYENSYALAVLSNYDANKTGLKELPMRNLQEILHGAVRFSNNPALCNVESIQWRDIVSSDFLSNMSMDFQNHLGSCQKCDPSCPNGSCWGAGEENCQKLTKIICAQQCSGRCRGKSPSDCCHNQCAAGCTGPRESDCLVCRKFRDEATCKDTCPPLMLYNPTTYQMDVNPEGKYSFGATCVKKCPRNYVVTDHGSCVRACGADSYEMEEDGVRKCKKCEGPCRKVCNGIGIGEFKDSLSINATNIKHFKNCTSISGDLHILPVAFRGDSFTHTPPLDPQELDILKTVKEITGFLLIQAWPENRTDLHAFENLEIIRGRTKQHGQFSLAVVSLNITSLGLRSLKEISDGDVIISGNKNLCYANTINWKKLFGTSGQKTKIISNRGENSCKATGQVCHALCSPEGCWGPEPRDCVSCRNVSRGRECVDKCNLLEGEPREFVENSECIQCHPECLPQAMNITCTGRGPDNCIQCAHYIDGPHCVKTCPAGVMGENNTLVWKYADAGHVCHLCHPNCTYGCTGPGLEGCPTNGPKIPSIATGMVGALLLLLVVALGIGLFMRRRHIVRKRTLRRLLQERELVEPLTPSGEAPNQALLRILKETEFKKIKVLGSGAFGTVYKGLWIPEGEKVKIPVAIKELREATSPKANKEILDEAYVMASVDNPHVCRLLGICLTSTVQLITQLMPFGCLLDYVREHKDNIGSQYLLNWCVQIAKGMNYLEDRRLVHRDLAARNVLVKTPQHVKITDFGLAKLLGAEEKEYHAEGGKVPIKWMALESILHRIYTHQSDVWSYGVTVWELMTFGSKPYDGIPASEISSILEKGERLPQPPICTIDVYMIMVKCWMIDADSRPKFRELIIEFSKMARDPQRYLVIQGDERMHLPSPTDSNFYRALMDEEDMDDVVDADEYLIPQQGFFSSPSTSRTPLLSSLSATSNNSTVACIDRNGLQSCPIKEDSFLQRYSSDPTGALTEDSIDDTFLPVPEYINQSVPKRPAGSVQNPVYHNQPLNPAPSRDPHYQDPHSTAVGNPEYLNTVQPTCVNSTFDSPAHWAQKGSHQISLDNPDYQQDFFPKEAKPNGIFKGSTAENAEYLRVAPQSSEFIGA
Chain of Insulin-like growth factor 1 receptor (P08069 31-736 limits assumed): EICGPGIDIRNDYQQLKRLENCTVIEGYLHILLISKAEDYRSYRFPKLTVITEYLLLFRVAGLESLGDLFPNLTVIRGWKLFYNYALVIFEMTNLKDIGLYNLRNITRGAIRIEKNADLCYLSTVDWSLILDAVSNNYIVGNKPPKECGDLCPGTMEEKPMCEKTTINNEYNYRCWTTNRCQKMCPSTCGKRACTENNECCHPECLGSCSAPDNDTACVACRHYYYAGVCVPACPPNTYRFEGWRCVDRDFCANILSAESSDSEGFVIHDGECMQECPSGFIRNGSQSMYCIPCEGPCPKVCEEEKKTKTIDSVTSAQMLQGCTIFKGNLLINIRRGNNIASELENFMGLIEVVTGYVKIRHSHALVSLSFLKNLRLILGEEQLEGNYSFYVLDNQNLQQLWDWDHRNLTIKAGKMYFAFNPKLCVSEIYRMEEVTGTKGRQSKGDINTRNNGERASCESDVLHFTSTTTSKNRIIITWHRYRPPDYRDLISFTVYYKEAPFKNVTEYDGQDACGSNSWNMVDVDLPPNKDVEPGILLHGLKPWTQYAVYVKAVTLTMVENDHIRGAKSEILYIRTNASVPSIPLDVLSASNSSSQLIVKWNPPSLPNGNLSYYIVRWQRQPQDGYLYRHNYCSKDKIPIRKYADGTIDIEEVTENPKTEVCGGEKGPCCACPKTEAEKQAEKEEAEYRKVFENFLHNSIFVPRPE
Chain of Insulin-like growth factor 1 receptor (P08069 741-1367 limits assumed): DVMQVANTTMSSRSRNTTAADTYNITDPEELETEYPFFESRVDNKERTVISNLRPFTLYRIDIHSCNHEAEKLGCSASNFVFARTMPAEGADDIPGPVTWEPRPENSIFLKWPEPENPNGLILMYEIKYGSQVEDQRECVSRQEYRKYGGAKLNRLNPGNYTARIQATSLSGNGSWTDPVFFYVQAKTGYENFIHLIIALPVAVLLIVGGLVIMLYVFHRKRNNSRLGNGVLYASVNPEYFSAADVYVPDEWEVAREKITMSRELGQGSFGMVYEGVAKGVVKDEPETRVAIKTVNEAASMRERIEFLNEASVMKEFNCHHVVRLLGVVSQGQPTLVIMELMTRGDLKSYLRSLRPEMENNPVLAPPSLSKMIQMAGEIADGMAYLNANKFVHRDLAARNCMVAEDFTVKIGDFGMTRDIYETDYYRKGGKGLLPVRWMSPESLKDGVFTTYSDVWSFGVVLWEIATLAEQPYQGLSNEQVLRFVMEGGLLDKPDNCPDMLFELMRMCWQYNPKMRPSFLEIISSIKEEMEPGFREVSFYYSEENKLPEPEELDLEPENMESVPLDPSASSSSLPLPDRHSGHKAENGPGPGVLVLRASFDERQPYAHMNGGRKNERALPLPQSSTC
Chain of Vascular endothelial growth factor receptor 3 (P35916 whole entry): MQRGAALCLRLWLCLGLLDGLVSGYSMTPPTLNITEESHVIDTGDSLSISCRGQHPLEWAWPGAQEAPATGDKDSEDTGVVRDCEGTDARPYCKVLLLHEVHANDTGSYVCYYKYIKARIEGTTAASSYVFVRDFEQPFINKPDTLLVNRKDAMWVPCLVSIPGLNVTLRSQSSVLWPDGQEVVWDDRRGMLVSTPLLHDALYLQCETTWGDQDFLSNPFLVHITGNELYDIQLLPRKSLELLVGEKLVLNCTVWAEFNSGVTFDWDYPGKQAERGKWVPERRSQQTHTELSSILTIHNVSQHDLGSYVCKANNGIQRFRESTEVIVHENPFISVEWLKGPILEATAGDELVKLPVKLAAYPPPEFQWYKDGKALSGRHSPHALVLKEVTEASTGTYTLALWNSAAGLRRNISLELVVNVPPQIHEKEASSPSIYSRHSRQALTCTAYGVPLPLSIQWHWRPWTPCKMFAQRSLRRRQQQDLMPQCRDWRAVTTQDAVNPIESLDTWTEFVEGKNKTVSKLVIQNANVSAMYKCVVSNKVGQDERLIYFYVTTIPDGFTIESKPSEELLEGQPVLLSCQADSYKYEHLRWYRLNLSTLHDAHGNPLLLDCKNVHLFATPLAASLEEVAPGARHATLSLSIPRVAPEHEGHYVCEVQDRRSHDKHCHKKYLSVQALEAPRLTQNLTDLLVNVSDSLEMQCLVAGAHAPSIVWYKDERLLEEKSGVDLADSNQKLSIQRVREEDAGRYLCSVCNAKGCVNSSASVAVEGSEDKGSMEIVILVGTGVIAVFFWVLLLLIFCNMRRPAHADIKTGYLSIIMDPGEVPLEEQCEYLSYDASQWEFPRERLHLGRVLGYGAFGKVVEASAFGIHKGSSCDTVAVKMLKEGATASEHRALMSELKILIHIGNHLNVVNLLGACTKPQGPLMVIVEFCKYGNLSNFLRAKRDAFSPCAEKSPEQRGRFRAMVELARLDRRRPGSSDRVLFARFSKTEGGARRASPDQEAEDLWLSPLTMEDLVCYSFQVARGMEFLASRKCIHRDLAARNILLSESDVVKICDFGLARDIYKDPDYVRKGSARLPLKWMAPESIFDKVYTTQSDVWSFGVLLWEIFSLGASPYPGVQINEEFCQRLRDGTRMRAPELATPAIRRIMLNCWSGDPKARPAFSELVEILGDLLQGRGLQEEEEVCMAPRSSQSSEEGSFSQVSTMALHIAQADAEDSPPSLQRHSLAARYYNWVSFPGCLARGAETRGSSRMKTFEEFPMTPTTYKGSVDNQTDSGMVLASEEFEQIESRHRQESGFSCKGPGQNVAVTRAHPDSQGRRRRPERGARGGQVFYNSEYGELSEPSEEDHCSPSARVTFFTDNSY
Chain of Aurora kinase C (Q9UQB9 whole entry): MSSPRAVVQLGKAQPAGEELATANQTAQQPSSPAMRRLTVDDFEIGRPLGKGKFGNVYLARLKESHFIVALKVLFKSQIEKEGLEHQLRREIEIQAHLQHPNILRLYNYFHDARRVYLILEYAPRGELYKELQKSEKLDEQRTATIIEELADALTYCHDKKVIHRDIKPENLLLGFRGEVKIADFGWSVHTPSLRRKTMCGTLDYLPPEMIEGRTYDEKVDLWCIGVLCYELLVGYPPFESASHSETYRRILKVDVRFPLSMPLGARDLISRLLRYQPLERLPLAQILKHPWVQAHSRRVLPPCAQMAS
Chain of CDK6/cyclin D1 (P24385 whole entry): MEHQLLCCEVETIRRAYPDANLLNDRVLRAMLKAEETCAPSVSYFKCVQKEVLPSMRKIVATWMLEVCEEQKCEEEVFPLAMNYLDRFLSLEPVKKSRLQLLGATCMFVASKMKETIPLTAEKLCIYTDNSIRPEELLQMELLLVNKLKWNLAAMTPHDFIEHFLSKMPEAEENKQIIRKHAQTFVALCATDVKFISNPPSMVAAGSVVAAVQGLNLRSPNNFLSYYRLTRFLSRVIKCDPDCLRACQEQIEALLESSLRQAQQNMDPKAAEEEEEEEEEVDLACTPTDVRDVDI
Chain of CDK6/cyclin D1 (Q00534 whole entry): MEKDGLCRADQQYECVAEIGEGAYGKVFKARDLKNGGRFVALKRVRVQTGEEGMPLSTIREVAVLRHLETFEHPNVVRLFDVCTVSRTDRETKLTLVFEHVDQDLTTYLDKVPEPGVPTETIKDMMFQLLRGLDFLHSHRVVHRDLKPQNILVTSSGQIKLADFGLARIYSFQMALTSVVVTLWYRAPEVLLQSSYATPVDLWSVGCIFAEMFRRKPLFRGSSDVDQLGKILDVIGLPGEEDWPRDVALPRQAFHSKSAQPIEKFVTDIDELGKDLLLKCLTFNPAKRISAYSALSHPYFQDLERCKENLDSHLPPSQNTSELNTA

With `CCc1c2c(nc3ccc(OC(=O)N4CCC(N5CCCCC5)CC4)cc13)-c1cc3c(c(=O)n1C2)COC(=O)[C@]3(O)CC` [IRINOTECAN], in experiment [1], the GI50 (commonly the concentration that inhibits growth by half) is 14.1 µM. That is a double-digit micromolar value.
Same read-out and setting: with `COc1cc([C@@H]2c3cc4c(cc3[C@@H](O[C@@H]3O[C@@H]5CO[C@@H](C)O[C@H]5[C@H](O)[C@H]3O)[C@H]3COC(=O)[C@H]23)OCO4)cc(OC)c1O` [ETOPOSIDE] the figure was 38.9 µM.
In the case of `COc1ccc(CNc2ccnc3oc4ccccc4c23)cc1`, the inhibition constant Ki (as a rule, a dissociation constant, usually derived from enzyme kinetics or from competition with a known ligand) in experiment [2] was 0.15 µM; in experiment [3], over 1000 µM; in experiment [4], over 1000 µM; in experiment [6] it was over 1000 µM; on Angiopoietin-1 receptor it was over 1000 µM; in [8], over 1000 µM. Further, the inhibition constant Ki (in [10]; in experiment [11]; in [12]; in [13]; on Aurora kinase A; at Aurora kinase C) was over 1000 µM throughout. Further, the Ki (in [14]; in [15]; in experiment [16]; in experiment [17]; on Misshapen-like kinase 1; at Wee1-like protein kinase) was over 1000 µM throughout. For the same compound, the Ki in experiment [19] was over 1000 µM. For the same compound, the IC50 (in general, the concentration at which inhibition is half-maximal) in experiment [5] is 392 µM; against Focal adhesion kinase 1, 194 µM; against Insulin receptor it was 622 µM; in experiment [7], 182 µM; at LIM domain kinase 1, 759 µM; in [9] it was 376 µM. Also, the IC50 worked out at 129 µM against CDK6/cyclin D1, 129 µM in experiment [18] and 271 µM in experiment [20].
`N[C@@H](Cc1ccc(N(CCCl)CCCl)cc1)C(=O)O` showed a GI50 in [1] of 33.1 µM.
As for `Clc1cccc(CNc2ccnc3oc4ccccc4c23)c1`, the inhibitory constant (Ki) was 0.58 µM in [2], over 1000 µM in experiment [21], over 1000 µM in experiment [3] and over 1000 µM in experiment [4].
As for `c1cncc(CNc2ccnc3oc4ccccc4c23)c1`, the Ki in [2], in experiment [21], in experiment [3] and in [4] was over 1000 µM throughout.
As to `c1ccc(CCNc2ccnc3oc4ccccc4c23)cc1`, the Ki was found to be 2.11 µM in [2], 3.45 µM in experiment [21], 9.39 µM in experiment [3] and 2.01 µM in experiment [4].
For `c1ccc2c(CNc3ccnc4oc5ccccc5c34)cccc2c1`, in that order: 0.57 µM, 0.68 µM, 1.09 µM and 0.3 µM.
Take `c1ccc(CNc2ccnc3oc4ccccc4c23)cc1`: the inhibition constant Ki amounted to 0.37 µM in experiment [2], 0.59 µM in [21], 1.09 µM in experiment [3] and 0.47 µM in experiment [4].
Consider `Clc1ccc(CNc2ccnc3oc4ccccc4c23)cc1`, for which the Ki in experiment [2] came to 0.11 µM; in experiment [21] it was 0.5 µM; in experiment [3], 0.68 µM; in [4] it was 0.18 µM. The compound further gave a GI50 in experiment [1] of 33.9 µM. In addition, in experiment [22], the LC50 (commonly the concentration lethal to half of the exposed cells or organisms) was over 100 µM.

The values are drawn from ChEMBL document CHEMBL1287713, “Discovery and selectivity-profiling of 4-benzylamino 1-aza-9-oxafluorene derivatives as lead structures for IGF-1R inhibitors” (Bioorg Med Chem Lett, 2010).
